Test results: US6608082B1, “Treatment of erectile dysfunction using isoquinoline compound melanocortin receptor ligands” (Lion Bioscience AG, priority 1998, dated 2003)

Molecular target: T1, MCR-1 (Homo sapiens, UniProt Q01726)
T1 construct: expressed in transfected cells; host or cells: HEK 293
Test: Melanocortin receptor binding assay, competition with 125I-HP 467, HEK 293 cells expressing hMCR-1
Settings: displacement of 125I-HP 467 at 10 μM isoquinoline compound
Experimental: All cell culture media and reagents were obtained from GibcoBRL (Gaithersburg Md.), except for COSMIC CALF SERUM (HyClone; Logan Utah).
Cells were suspended in PBS, 10% COSMIC CALF SERUM and 1 mM CaCl2. Cell suspensions were prepared at a density of 2×10^4 cells/ml for HEK 293 cells expressing hMCR-3, hMCR-4 or hMCR-5, and 1×10^5 cells/ml for HEK 293 cells expressing hMCR-1. Suspensions were placed in a water bath and allowed to warm to 37° C. for 1 hr.
Binding assays were performed in a total volume of 250 μl for HEK 293 cells. […] To each tube was added 4×10^3 HEK 293 cells expressing hMCR-3, hMCR-4 or hMCR-5, or 2×10^4 cells expressing hMCR-1. Assays were incubated for 2.5 hr at 37° C.
GF/B filter plates were prepared by soaking for at least one hour in 5 mg/ml BSA and 10 mM CaCl2. Assays were filtered using a Brandel 96-well cell harvester (Brandel Inc.; Gaithersburg, Md.). The filters were washed four times with cold 50 mM Tris, pH 7.4, the filter plates were dehydrated for 2 hr and 35 μl of MICROSCINT was added to each well. Filter plates were counted using a Packard Topcount (Packard Instrument Co.) and data analyzed using GraphPad PRISM v2.0 (GraphPad Software Inc.; San Diego Calif.) and Microsoft EXCEL v5.0a (Microsoft Corp.; Redmond Wash.).
To assay isoquinoline compounds, binding assays were performed in duplicate in a 96 well format. […] A 0.2 ml aliquot of suspended cells was added to each well to give the cell numbers indicate above, and the cells were incubated at 37° C. for 2.5 hr. Cells were harvested on GF/B filter plates as described above and counted.

T1 sequence (Q01726 whole entry): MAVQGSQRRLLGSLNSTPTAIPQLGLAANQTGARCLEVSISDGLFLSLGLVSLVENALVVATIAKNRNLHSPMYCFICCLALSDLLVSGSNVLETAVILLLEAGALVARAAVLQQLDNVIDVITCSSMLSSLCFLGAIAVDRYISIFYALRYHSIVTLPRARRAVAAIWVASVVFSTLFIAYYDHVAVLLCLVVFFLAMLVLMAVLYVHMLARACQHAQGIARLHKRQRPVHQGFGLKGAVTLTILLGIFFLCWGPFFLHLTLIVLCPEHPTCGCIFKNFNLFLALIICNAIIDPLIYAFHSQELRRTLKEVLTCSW

Structure (SMILES) | % Disp. MC-1 10 μM (first of duplicate) [%] | % Disp. MC-1 10 μM (second of duplicate) [%]
NCCN1Cc2ccccc2C(CNC2CCCCC2)C1c1ccccc1F (centres unmarked) [TRG 2405-16] | 26.8 | 40.3
NCCN1Cc2ccccc2C(CNC2CCCCC2)C1c1ccco1 (centres unmarked) [TRG 2405-17] | 36 | 32.8
NCCN1Cc2ccccc2C(CNC2CCCCC2)C1c1ncc[nH]1 (centres unmarked) [TRG 2405-18] | 35.9 | 34.7
COc1ccccc1C1C(CNC2CCCCC2)c2ccccc2CN1CCN (centres unmarked) [TRG 2405-19] | 42.2 | 36.2
NCCN1Cc2ccccc2C(CNC2CCCCC2)C1c1ccc2ccccc2c1 (centres unmarked) [TRG 2405-20] | 59.8 | 53.6
NCCN1Cc2ccccc2C(CNC2CCCCC2)C1c1ccccn1 (centres unmarked) [TRG 2405-21] | 47.7 | 42.5
NCCN1Cc2ccccc2C(CNC2CCCCC2)C1c1ccc2ccccc2n1 (centres unmarked) [TRG 2405-22] | 29.7 | 43.4
NCCN1Cc2ccccc2C(CNC2CCCCC2)C1c1cccs1 (centres unmarked) [TRG 2405-23] | 43 | 47.8
NCCN1Cc2ccccc2C(CNC2CCCCC2)C1c1ccc(O)c(O)c1 (centres unmarked) [TRG 2405-25] | 21.6 | 31.9
NCCN1Cc2ccccc2C(CNC2CCCCC2)C1c1ccc(Cl)c(Cl)c1 (centres unmarked) [TRG 2405-26] | 59.6 | 64.6
NCCN1Cc2ccccc2C(CNC2CCCCC2)C1c1ccc(F)c(F)c1 (centres unmarked) [TRG 2405-27] | 52.1 | 43.8
NCCN1Cc2ccccc2C(CNC2CCCCC2)C1c1cc(O)cc(O)c1 (centres unmarked) [TRG 2405-29] | 28.5 | 26.2
NCCN1Cc2ccccc2C(CNC2CCCCC2)C1c1cc(Cl)cc(Cl)c1 (centres unmarked) [TRG 2405-30] | 54.7 | 52.8
COc1cc(OC)cc(C2C(CNC3CCCCC3)c3ccccc3CN2CCN)c1 (centres unmarked) [TRG 2405-31] | 40.7 | 48.5
Cc1cc(C2C(CNC3CCCCC3)c3ccccc3CN2CCN)cc(C)c1O (centres unmarked) [TRG 2405-32] | 10.1 | 38.3
NCCN1Cc2ccccc2C(CNC2CCCCC2)C1c1cccc(Oc2ccc(Cl)c(Cl)c2)c1 (centres unmarked) [TRG 2405-33] | 54.2 | 48.7
COc1ccc(Oc2cccc(C3C(CNC4CCCCC4)c4ccccc4CN3CCN)c2)cc1 (centres unmarked) [TRG 2405-34] | 55.6 | 56.1
NCCN1Cc2ccccc2C(CNC2CCCCC2)C1c1cccc(C(F)(F)F)c1 (centres unmarked) [TRG 2405-35] | 54.6 | 55
NCCN1Cc2ccccc2C(CNC2CCCCC2)C1c1ccc(F)c(Br)c1 (centres unmarked) [TRG 2405-36] | 51.8 | 53.6
NCCN1Cc2ccccc2C(CNC2CCCCC2)C1c1cccc(Br)c1 (centres unmarked) [TRG 2405-37] | 49.7 | 54.4
NCCN1Cc2ccccc2C(CNC2CCCCC2)C1c1cccc(CN)c1 (centres unmarked) [TRG 2405-39] | 23.2 | 16.9
COc1ccc(C2C(CNC3CCCCC3)c3ccccc3CN2CCN)cc1F (centres unmarked) [TRG 2405-40] | 22.4 | 35.5
NCCN1Cc2ccccc2C(CNC2CCCCC2)C1c1cccc(F)c1 (centres unmarked) [TRG 2405-41] | 19.6 | 19.8
NCCN1Cc2ccccc2C(CNC2CCCCC2)C1c1ccoc1 (centres unmarked) [TRG 2405-42] | 43.6 | 40.7
NCCN1Cc2ccccc2C(CNC2CCCCC2)C1c1cccc(O)c1 (centres unmarked) [TRG 2405-43] | 32.3 | 23.1

Structure (SMILES) | % Disp. MC-1 10 μM (first of duplicate) [%] | % Disp. MC-1 10 μM (second of duplicate) [%]
COc1cccc(C2C(CNC3CCCCC3)c3ccccc3CN2CCN)c1 (centres unmarked) [TRG 2405-45] | 40.6 | 31.9
COc1ccc(C2C(CNC3CCCCC3)c3ccccc3CN2CCN)cc1C (centres unmarked) [TRG 2405-46] | 46.8 | 40.3
NCCN1Cc2ccccc2C(CNC2CCCCC2)C1c1cccc([N+](=O)[O-])c1 (centres unmarked) [TRG 2405-49] | 37.2 | 42.4
NCCN1Cc2ccccc2C(CNC2CCCCC2)C1c1cccc(Oc2ccccc2)c1 (centres unmarked) [TRG 2405-50] | 61.9 | 50.8
NCCN1Cc2ccccc2C(CNC2CCCCC2)C1c1cccnc1 (centres unmarked) [TRG 2405-51] | 30.6 | 23.1
NCCN1Cc2ccccc2C(CNC2CCCCC2)C1c1cnc2ccccc2c1 (centres unmarked) [TRG 2405-52] | 42.4 | 42.3
NCCN1Cc2ccccc2C(CNC2CCCCC2)C1c1ccsc1 (centres unmarked) [TRG 2405-53] | 43.3 | 43.4
CN(C)CCCOc1ccc(C2C(CNC3CCCCC3)c3ccccc3CN2CCN)cc1 (centres unmarked) [TRG 2405-54] | 1.3 | 9
CN(C)c1ccc(C2C(CNC3CCCCC3)c3ccccc3CN2CCN)cc1 (centres unmarked) [TRG 2405-55] | 32.6 | 38.1
CSc1ccc(C2C(CNC3CCCCC3)c3ccccc3CN2CCN)cc1 (centres unmarked) [TRG 2405-57] | 17.4 | 42.6
NCCN1Cc2ccccc2C(CNC2CCCCC2)C1c1ccc(C(F)(F)F)cc1 (centres unmarked) [TRG 2405-58] | 56.3 | 46.6
CCNc1ccc(C2C(CNC3CCCCC3)c3ccccc3CN2CCN)cc1 (centres unmarked) [TRG 2405-59] | 34.3 | 40.1
COc1ccc(C2C(CNC3CCCCC3)c3ccccc3CN2CCN)cc1 (centres unmarked) [TRG 2405-60] | 41.4 | 42.4
NCCN1Cc2ccccc2C(CNC2CCCCC2)C1c1ccc(-c2ccccc2)cc1 (centres unmarked) [TRG 2405-61] | 54.7 | 61.9
NCCN1Cc2ccccc2C(CNC2CCCCC2)C1c1ccc(Br)cc1 (centres unmarked) [TRG 2405-62] | 32.1 | 54.3
NCCN1Cc2ccccc2C(CNC2CCCCC2)C1c1ccc(F)cc1 (centres unmarked) [TRG 2405-65] | 49.6 | 33.9
NCCN1Cc2ccccc2C(CNC2CCCCC2)C1c1ccc(O)cc1 (centres unmarked) [TRG 2405-66] | 81.6 | 11.3
CC(C)c1ccc(C2C(CNC3CCCCC3)c3ccccc3CN2CCN)cc1 (centres unmarked) [TRG 2405-67] | 54 | 51.3
COc1ccc(C2C(CNC3CCCCC3)c3ccccc3CN2CCN)c2ccccc12 (centres unmarked) [TRG 2405-68] | 55.3 | 52.3
Cc1ccc(C2C(CNC3CCCCC3)c3ccccc3CN2CCN)cc1 (centres unmarked) [TRG 2405-69] | 49.8 | 49
NCCN1Cc2ccccc2C(CNC2CCCCC2)C1c1ccc([N+](=O)[O-])c(O)c1 (centres unmarked) [TRG 2405-70] | 19.9 | 46.7
NCCN1Cc2ccccc2C(CNC2CCCCC2)C1c1ccc([N+](=O)[O-])cc1 (centres unmarked) [TRG 2405-71] | 28.2 | 40
NCCN1Cc2ccccc2C(CNC2CCCCC2)C1c1ccc(Oc2ccccc2)cc1 (centres unmarked) [TRG 2405-72] | 50.1 | 57.7
CCCOc1ccc(C2C(CNC3CCCCC3)c3ccccc3CN2CCN)cc1 (centres unmarked) [TRG 2405-73] | 60.1 | 60.5
